Structures can show the parent of a compound that is named as a salt.

Drawing on US7250515B2, “Thiazolinone 3,4-disubstituted quinolines” (Hoffman-La Roche Inc., priority 2004, dated 2007), this text covers Ki for eleven compounds.

In this test the target is T1, recombinant human CDK1/Cyclin B complex (Homo sapiens, UniProt P06493).
T1 construct: made in house; host or cells: High Five insect cells (baculovirus); Rb substrate made in E. coli M15
T1 sequence (P06493 whole entry): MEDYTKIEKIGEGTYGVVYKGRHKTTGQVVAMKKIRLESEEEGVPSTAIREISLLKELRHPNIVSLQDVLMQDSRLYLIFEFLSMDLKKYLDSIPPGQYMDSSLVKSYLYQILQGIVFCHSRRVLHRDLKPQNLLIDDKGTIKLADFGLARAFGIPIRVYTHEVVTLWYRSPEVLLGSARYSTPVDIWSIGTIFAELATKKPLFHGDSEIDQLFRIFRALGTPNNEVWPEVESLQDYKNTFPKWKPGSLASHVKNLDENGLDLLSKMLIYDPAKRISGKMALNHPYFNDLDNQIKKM
T1 sequence (P14635 whole entry partner): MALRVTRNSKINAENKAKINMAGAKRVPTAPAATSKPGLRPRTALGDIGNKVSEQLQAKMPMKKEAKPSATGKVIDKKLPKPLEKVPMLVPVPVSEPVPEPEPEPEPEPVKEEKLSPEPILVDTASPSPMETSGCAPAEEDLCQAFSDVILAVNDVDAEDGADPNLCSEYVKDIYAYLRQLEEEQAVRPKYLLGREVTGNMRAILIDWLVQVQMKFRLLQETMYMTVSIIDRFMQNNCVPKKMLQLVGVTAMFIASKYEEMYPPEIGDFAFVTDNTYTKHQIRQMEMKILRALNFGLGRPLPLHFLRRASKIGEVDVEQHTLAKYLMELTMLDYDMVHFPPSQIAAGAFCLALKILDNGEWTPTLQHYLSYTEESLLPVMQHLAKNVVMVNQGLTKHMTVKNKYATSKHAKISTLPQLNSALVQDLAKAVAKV
Kind of test: CDK1/Cyclin B kinase assay (FlashPlate or HTRF), Rb protein substrate. The class given is biochemical. As to conditions: Ki=IC50/(1+[S]/Km). On the procedure:
To determine inhibition of CDK1 activity, either FlashPlate™ (NEN™-Life Science Products) assay or HTRF assay was performed. Both types of kinase assays were carried out using recombinant human CDK1/Cyclin B complex. GST-cyclinB (GST-cycB) and CDK1cDNA clones in baculovirus vectors were provided by Dr. W. Harper at the Baylor College of Medicine, Houston, Tex. Proteins were co-expressed in High Five™ insect cells and the complex was purified on glutathione Sepharose resin (Pharmacia, Piscataway, N.J.) as previously described (Harper, J. W. et al. Cell 1993, 75, 805-816). A 6×-Histidine tagged truncated form of retinoblastoma (Rb) protein (amino acid 386-928) was used as the substrate for the CDK1/Cyclin B assay (the expression plasmid was provided by Dr. Veronica Sullivan, Department of Molecular Virology, Roche Research Centre, Welwyn Garden City, United Kingdom). The Rb protein is a natural substrate for phosphorylation by CDK1 (see Herwig and Strauss Eur. J. Biochem. Vol. 246 (1997) pp. 581-601 and the references cited therein). The expression of the 62 Kd protein was under the control of an IPTG inducible promoter in an M15 E. coli strain. Cells were lysed by sonication and purification was carried out by binding lysates at pH 8.0 to a Ni-chelated agarose column pretreated with 1 mM imidazole. The resin was then washed several times with incrementally decreasing pH buffers to pH 6.0, and eluted with 500 mM imidazole. Eluted protein was dialyzed against 20 mM HEPES pH 7.5, 30% glycerol, 200 mM NaCl, and 1 mM DTT. Purified Rb fusion protein stocks were quantitated for protein concentration, aliquoted, and stored at −70° C.
For the FlashPlate kinase assay, 96-well FlashPlates were coated with Rb protein at 10 μg/ml, using 100 μl per well. Plates were incubated at 4° C. overnight or at room temperature for 3 hours on a shaker. To control for nonspecific phosphorylation, one row of wells was coated with 100 μl/well coating buffer (20 mM HEPES, 0.2 M NaCl). Plates were then washed twice with wash buffer (0.01% Tween 20 in phosphate-buffered saline). Compounds to be tested (“test compounds”) were added to the wells at 5× final concentration. Reactions were initiated by immediate addition of 40 μl reaction mix (25 mM HEPES, 20 mM MgCl2, 0.002% Tween 20, 2 mM DTT, 1 μM ATP, 4 nM 33P-ATP) and a sufficient amount of enzyme to give counts that were at least 10-fold above background. Plates were incubated at room temperature on a shaker for 30 minutes. Plates were washed four times with the wash buffer, sealed, and counted on the TopCount scintillation counter (Packard Instrument Co., Downers Grove, Ill.]. The percent inhibition of Rb phosphorylation, which is a measure of the inhibition of CDK activity, was determined according to the following formula:
[formula] where “test compound” refers to the average counts per minute of the test duplicates, “nonspecific” refers to the average counts per minute when no CDK1/Cyclin B, etc., was added, and “total” refers to the average counts per minute when no compound was added. The IC50 value is the concentration of test compound that reduces by 50% the protein-kinase induced incorporation of the radiolabel under the test conditions described. The value of the inhibitor constant Ki is calculated by the following: Ki=IC50/(1+[S]/Km), where [S] is the ATP concentration and Km is Michaelis constant.
The Homofeneous Time Resolved Fluorescence (HTRF) kinase assay was carried out in 96-well polypropylene plates (BD Biosciences, Bedford, Mass.). Test compounds were first dissolved in DMSO, and then diluted in kinase assay buffer 1 (25 mM HEPES, pH7.0, 8 mM MgCl2, 1.5 mM DTT, and 162 μM ATP) with DMSO concentration at 15%. The CDK1/Cyclin B enzyme was diluted in kinase assay buffer 2 (25 mM HEPES, pH 7.0, 8 mM MgCl2, 0.003% Tween 20, 0.045% BSA, 1.5 mM DTT, and 0.675 μM Rb protein). […]
For orientation: TR-FRET usually uses a lanthanide donor and a delayed reading to cut background.
The Ki is the dissociation constant of the complex between target and ligand, obtained from inhibition or displacement. Consider `COC(=O)c1cnc2ccc(/C=C3\SC(N[C@@H](CO)c4ccccc4)=NC3=O)cc2c1OC` [Example 5, 6-[2-((R)-2-Hydroxy-1-phenyl-ethylamino)-4-oxo-4H-thiazol-(5Z)-ylidenemethyl]-4-methoxy-quinoline-3-carboxylic acid methyl ester], for which the Ki is 179 nM. As for `COc1c(C(=O)N(C)C)cnc2ccc(/C=C3\SC(N[C@@H]4C[C@H]4c4ccccc4)=NC3=O)cc12` [Example 10, 4-Methoxy-6-[4-oxo-2-((1R,2S)-2-phenyl-cyclopropylamino)-4H-thiazol-(5Z)-ylidenemethyl]-quinoline-3-carboxylic acid dimethylamide], the Ki came out at 958 nM. As to `CCOc1c(C#N)cnc2ccc(/C=C3\SC(N)=NC3=O)cc12` [Example 15, 6-[2-Amino-4-oxo-4H-thiazol-(5Z)-ylidenemethyl]-4-ethoxy-quinoline-3-carbonitrile], the Ki is 8 nM. Take `CCOc1c(C#N)cnc2ccc(/C=C3\SC(NCCn4ccnc4)=NC3=O)cc12` [Example 20, 4-Ethoxy-6-[2-(2-imidazol-1-yl-ethylamino)-4-oxo-4H-thiazol-(5Z)-ylidenemethyl]-quinoline-3-carbonitrile]: the Ki was 228 nM. In the case of `CCOc1c(C#N)cnc2ccc(/C=C3\SC(NCCOCCOC)=NC3=O)cc12` [Example 25, 6-[2-[2-(2-methoxy-ethoxy)-ethylamino]-4-oxo-4H-thiazol-(5Z)-ylidenemethyl]-4-ethoxy-quinoline-3-carbonitrile], the Ki was 1000 nM. Turning to `N#Cc1cnc2ccc(/C=C3\SC(N)=NC3=O)cc2c1OC1CCNCC1` [Example 30, 6-[2-Amino-4-oxo-4H-thiazol-(5Z)-ylidenemethyl]-4-(piperidin-4-yloxy)-quinoline-3-carbonitrile hydrochloride], the Ki worked out at 184 nM. For the compound `CC(C)Sc1c(C#N)cnc2ccc(/C=C3\SC(N)=NC3=O)cc12` [Example 40, 6-[2-amino-4-oxo-4H-thiazol-(5Z)-ylidenemethyl]-4-isopropylsulfanyl-quinoline-3-carbonitrile], the Ki is 16 nM. Under `N#Cc1cnc2ccc(/C=C3\SC(N)=NC3=O)cc2c1SCCCO` [Example 50, 6-[2-Amino-4-oxo-4H-thiazol-(5Z)-ylidenemethyl]-4-(3-hydroxy-propylsulfanyl)-quinoline-3-carbonitrile] stands 65 nM; under `CC(C)Oc1c(C#N)cnc2ccc(/C=C3\SC(NN)=NC3=O)cc12` [Example 60, 6-[2-Hydrazino-4-oxo-4H-thiazol-(5Z)-ylidenemethyl]-4-isopropoxy-quinoline-3-carbonitrile hydrochloride salt], 28 nM. With `CC(C)(C)COc1c(C#N)cnc2ccc(/C=C3\SC(NC4CC4)=NC3=O)cc12` [Example 70, 6-[2-Cyclopropylamino-4-oxo-4H-thiazol-(5Z)-ylidenemethyl]-4-(2,2-dimethyl-propoxy)-quinoline-3-carbonitrile], the Ki was 6 nM. Under `CCCCOc1c(C#N)cnc2ccc(/C=C3\SC(N)=NC3=O)cc12` [Example 80, 6-[2-Amino-4-oxo-4H-thiazol-(5Z)-ylidenemethyl]-4-butoxy-quinoline-3-carbonitrile] stands 1 nM.
